Reference: patent US8088936B2, “Leukotriene B4 inhibitors” (Hoffman-La Roche Inc., priority 2009, dated 2012)
pIC50: −log10 of the molar value.

Tested on: Human leukemia HL-60 cells endogenously expressing BLT1 and BLT2 receptors
Assay: Ca2+ flux assay for LTB4 antagonist assay (HL-60 FLIPR)
Type: cell-based
Conditions: retinoic acid induced HL-60 cells, inhibition of LTB4-induced Ca2+ flux, 30 min preincubation; read-out: LTB4 antagonism (HL-60 FLIPR)

pIC50 | Structure (SMILES)
8.70 | CC(=O)c1cc(OCCCCCCc2cccc(OCCCC(=O)O)c2CCC(=O)O)cc(-c2ccsc2)c1 [Example 68, 4-[3-[6-(3-Acetyl-5-thiophen-3-yl-phenoxy)-hexyl]-2-(2-carboxy-ethyl)-phenoxy]-butyric acid]
9.05 | CC(=O)c1cc(OCCCCCCc2cccc(OCCCC(=O)O)c2CCC(=O)O)cc(-c2ccc3c(c2)OC(F)(F)O3)c1 [Example 69, 4-[3-{6-[3-Acetyl-5-(2,2-difluoro-benzo[1,3]dioxol-5-yl)-phenoxy]-hexyl}-2-(2-carboxy-ethyl)-phenoxy]-butyric acid]
9.51 | CC(C)C(=O)c1cc(OCCCCCCc2cccc(OCCCC(=O)O)c2CCC(=O)O)cc(-c2ccc3c(c2)OCO3)c1 [Example 70, 4-[3-[6-(3-Benzo[1,3]dioxol-5-yl-5-isobutyryl-phenoxy)-hexyl]-2-(2-carboxy-ethyl)-phenoxy]-butyric acid]
9.40 | CCC(=O)c1cc(OCCCCCCc2cccc(OCCCC(=O)O)c2CCC(=O)O)cc(-c2ccc3c(c2)OCO3)c1 [Example 71, 4-[3-[6-(3-Benzo[1,3]dioxol-5-yl-5-propionyl-phenoxy)-hexyl]-2-(2-carboxy-ethyl)-phenoxy]-butyric acid]
9.80 | O=C(O)CCCOc1cccc(CCCCCCOc2cc(C(=O)C3CC3)cc(-c3ccc4c(c3)OCO4)c2)c1CCC(=O)O [Example 72, 4-[3-[6-(3-Benzo[1,3]dioxol-5-yl-5-cyclopropanecarbonyl-phenoxy)-hexyl]-2-(2-carboxy-ethyl)-phenoxy]-butyric acid]
9.11 | O=C(O)CCCOc1cccc(CCCCCCOc2cc(C(=O)C3CCCC3)cc(-c3ccc4c(c3)OCO4)c2)c1CCC(=O)O [Example 73, 4-[3-[6-(3-Benzo[1,3]dioxol-5-yl-5-cyclopentanecarbonyl-phenoxy)-hexyl]-2-(2-carboxy-ethyl)-phenoxy]-butyric acid]
